Legend:
Format in all cases: binding
[1] = molecular target: T1, E22G globulomer (beta amyloid 1-42, Arctic mutation) (Homo sapiens, UniProt P05067, E693G); assay: NMPA capture of E22G globulomer; settings: neutrally charged mutant; FIG. 8
T1 construct: Three beta amyloid 1-42 peptides were generated to test the role of E22; purchased Anaspec
From the text: Three beta amyloid 1-42 peptides were generated to test the role of E22: a wild-type peptide, a mutant peptide containing Arctic mutation E22G with a neutral charge, and a mutant peptide containing Italian mutation E22K with a positive charge. Synthetic peptides were commercially available from Anaspec.
Mutant peptides were oligomerized according to the methods described in Example 3.
NMPA was used to evaluate the ability of PSR1 to capture the E22G globulomer. The methods used are described in Example 2.

Abeta 1-40 monomer = molecular target: T2, Abeta 1-40 monomer (Homo sapiens, UniProt P05067); assay: Globulomer capture assay in CSF (Example 6): Abeta 1-40 noise; settings: Abeta 1-40 signal (noise), CSF samples
T2 construct: Abeta 1-40 monomer capture level; from tissue; host or cells: cerebrospinal fluid (matrix of the assay)
Protocol: (§1) A series of new potential aggregate-specific binding reagents were designed as shown below and conjugated onto magnetic Dynal M270 beads as described in Example 2. Typically 7-12 nmol of ligand (each candidate aggregate-specific binding reagent) was coated onto 1 mg of beads.
(§2) Aliquots of the beads (typically 3 ul) were added to wells of a 96 well plate, followed by sample (with or without Abeta 1-42 globulomer (an Abeta42 oligomer model) spiked in 80:20 CSF:TBSTT, typically 125 ul). The plate was sealed and incubated for 1 hour at 37° C. with shaking. The plate was washed with aqueous solutions of detergent (typically polyethylene glycol sorbitan monolaurate and n-tetradecyl-N,N-dimethyl-3-ammonio-1-propanesulfonate) to remove ubound material and the residual buffer removed. A denaturing solution (typically 0.1-0.15 N NaOH) was added to each well and the plate heated to 80° C. for 30 min with shaking. After cooling the plate to room temperature, a neutralizing buffer (typically 0.12-0.18 M NaH2PO3 in 0.4% TWEEN20,) was added and the plate was shaken briefly at room temperature. The bead eluate was analyzed using either an Aβ42-specific ELISA or the MSD® 96-Well MULTI-SPOT® Human/Rodent [4G8] Abeta Triplex Ultra-Sensitive Assay from Meso Scale Discovery (Gaithersburg, Md.). For the Aβ42-specific assay, the samples were eluted from the beads and a detection antibody (4G8 HRP) was added to a plate bearing the Aβ42-specific antibody 12F4. The plate was incubated for 1 hour, washed, the substrate was added (SuperSignal West Femto Maximum Sensitivity Substrate from Thermo Fisher, Rockville, Md.), and the luminescence was measured. The MSD plate assay was performed in a similar fashion, according to the manufacturer's protocol.
(§3) In this experiment the preferred number of charges within a given scaffold was identified. An Ala/Lys peptide framework was utilized, where the inclusion of each Lys residue increases the peptides' net charge by +1. Six hexapeptides with increasing charge (+1→+6), AAAKAA, AAKKAA, AAKKKA, AKKKKA, AKKKKK, and KKKKKK, were prepared and conjugated on the beads. The ability of these beads to capture Abeta 1-42 globulomer spiked at 1 ng/mL into CSF was tested, and the result is shown in FIG. 25. The globulomer capture level (“42 1 ng/ml” or the closed bars) was compared to the background signal of Abeta 1-42 detected in the unspiked CSF (“42 0 ng/ml”) and the background signal of Abeta 1-40 detected in unspiked CSF (“40 0 ng/ml”) or CSF spiked with AB42 oligomers “40 1 ng/ml”. The charge density, as conjugated to the magnetic beads, of each reagent evaluated in this experiment is shown below in Table 8.

Abeta 1-42 globulomer = molecular target: T3, Abeta 1-42 globulomer (Homo sapiens, UniProt P05067); assay: Globulomer capture assay in CSF (Example 6)
T3 construct: beta amyloid (1-42) was monomerized with incubation in hexafluoroisopropanol
Protocol: as §1, §2, §3

Nab-Nab-Nab-Nbn-Nab-Nbn [PSR1]
capture of E22G globulomer [1]: not captured
40, 1 ng/ml average reading (Abeta 1-40 monomer): 234.5 RLUs
42:40 (signal:noise ratio) (Abeta 1-42 globulomer; 1 ng/ml average reading, ratio of 42 to 40): 4.1
42, 1 ng/ml average reading (Abeta 1-42 globulomer; Abeta 1-42 globulomer spiked at 1 ng/mL into CSF): 970.5 RLUs

Reference: patent publication US20130109581A1, “POSITIVELY CHARGED SPECIES AS BINDING REAGENTS IN THE SEPARATION OF PROTEIN AGGREGATES FROM MONOMERS” (priority 2009, published 2013)
